According to patent US11357246B2, “High intensity sweeteners” (Firmenich Incorporated, priority 2015, dated 2022):
Read-outs that look alike come from different tables or passages of the source.

Biological target: T1, hT1R2/hT1R3 (Homo sapiens, UniProt Q7RTX0+Q8TE23)
T1 construct: expressed in transfected cells; parental cells lack the receptor
T1 sequence (Q8TE23 20-839): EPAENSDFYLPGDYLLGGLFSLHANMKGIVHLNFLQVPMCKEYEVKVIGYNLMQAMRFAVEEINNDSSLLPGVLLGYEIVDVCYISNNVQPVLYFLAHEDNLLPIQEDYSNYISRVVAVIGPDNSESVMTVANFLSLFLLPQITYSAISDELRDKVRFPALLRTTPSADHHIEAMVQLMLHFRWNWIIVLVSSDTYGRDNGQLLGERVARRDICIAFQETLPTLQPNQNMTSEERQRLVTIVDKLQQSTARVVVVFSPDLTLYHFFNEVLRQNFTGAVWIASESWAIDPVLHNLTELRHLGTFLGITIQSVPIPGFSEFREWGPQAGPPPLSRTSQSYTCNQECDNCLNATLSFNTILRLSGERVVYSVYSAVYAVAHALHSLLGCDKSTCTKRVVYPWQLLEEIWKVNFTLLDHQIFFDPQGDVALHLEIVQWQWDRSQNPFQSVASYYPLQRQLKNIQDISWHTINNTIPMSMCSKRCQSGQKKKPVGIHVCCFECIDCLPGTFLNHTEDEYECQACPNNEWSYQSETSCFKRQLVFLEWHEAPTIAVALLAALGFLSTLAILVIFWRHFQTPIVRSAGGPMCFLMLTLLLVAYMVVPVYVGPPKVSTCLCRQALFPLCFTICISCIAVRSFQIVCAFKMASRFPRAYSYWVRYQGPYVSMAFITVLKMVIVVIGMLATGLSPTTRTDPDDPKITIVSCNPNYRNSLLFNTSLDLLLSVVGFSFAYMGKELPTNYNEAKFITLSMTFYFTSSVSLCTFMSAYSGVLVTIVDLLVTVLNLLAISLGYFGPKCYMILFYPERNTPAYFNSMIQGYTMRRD
T1 sequence (Q7RTX0 21-852): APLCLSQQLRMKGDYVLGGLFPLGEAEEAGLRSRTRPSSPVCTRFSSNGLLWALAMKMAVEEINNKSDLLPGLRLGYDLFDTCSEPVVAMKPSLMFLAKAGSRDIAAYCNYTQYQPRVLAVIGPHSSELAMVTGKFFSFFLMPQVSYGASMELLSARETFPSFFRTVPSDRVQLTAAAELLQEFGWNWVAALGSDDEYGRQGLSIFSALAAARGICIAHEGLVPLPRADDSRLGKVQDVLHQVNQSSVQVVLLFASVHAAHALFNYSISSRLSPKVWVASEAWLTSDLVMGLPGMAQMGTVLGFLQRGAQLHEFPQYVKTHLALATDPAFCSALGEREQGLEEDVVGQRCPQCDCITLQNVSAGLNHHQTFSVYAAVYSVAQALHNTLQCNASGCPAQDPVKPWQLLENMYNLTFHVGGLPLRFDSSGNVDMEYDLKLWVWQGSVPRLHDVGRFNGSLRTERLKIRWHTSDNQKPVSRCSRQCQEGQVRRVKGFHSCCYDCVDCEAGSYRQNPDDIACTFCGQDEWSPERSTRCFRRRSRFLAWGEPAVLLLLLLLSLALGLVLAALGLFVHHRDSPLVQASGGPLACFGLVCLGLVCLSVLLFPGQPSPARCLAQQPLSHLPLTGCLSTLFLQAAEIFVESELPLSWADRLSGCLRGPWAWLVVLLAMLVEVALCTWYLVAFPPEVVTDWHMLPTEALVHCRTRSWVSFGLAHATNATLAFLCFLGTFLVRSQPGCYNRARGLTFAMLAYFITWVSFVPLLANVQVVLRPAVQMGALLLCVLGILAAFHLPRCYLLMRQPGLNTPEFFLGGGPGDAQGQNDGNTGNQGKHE
Experiment: HTS-Sweet: FLIPR calcium fluorometric imaging assay in cells stably expressing the human sweet taste receptor and a promiscuous G protein
Type: cell-based
Protocol: Compound activity (EC50) was determined using an automated fluorometric imaging assay on a FLIPR instrument (Fluorometric […] Plate Reader, Molecular Devices, Sunnyvale, Calif.). Cell stably expressing the human sweet taste receptor and a promiscuous G protein were seeded into 384-well plates (at approximately 40,000 cells per well). Cells were grown for 24 hours at 37° C. Cells were then loaded with the calcium dye Fluo-4AM (Molecular Probes, Eugene, Oreg.), 4 μM in a phosphate buffered saline (D-PBS) (Invitrogen, Carlsbad, Calif.), for 1 hour at room temperature. After replacement with 25 μl D-PBS, stimulation was performed in the FLIPR instrument and at room temperature by the addition of 25 μl D-PBS supplemented with different stimuli at concentrations corresponding to twice the desired final level. Receptor activity was quantified by determining the maximal fluorescence increases (using a 480 nm excitation and 535 nm emission) after normalization to basal fluorescence intensity measured before stimulation.
For dose-responses analysis, stimuli were presented in duplicates at 10 different concentrations ranging from 0.4 μM to 200 μM. EC50 s were determined using a non-linear regression algorithm, where the Hill slope, bottom asymptotes and top asymptotes were allowed to vary.

[1] = FLIPR, Fluo-4AM, 10 concentrations 0.4 μM to 200 μM in duplicates, read-out: Compound EC50s for hT1R2/hT1R3

Row | Compound | EC50 [1] [µM] | EC50 [µM]
1 | C[C@H](CC[C@@H](O[C@@H]1O[C@H](CO[C@@H]2O[C@H](CO)[C@@H](O)[C@H](O)[C@H]2O)[C@@H](O)[C@H](O)[C@H]1O[C@@H]1O[C@H](CO)[C@@H](O)[C@H](O)[C@H]1O)C(C)(C)O)C1CC[C@@]2(C)C3CC=C4C(CC[C@H](O[C@@H]5O[C@H](CO[C@H]6O[C@H](CO[C@H]7O[C@@H](CO)[C@H](O)[C@@H](O)[C@@H]7O)[C@@H](O)[C@H](O)[C@H]6O)[C@@H](O)[C@H](O)[C@H]5O)C4(C)C)[C@]3(C)[C@H](O)C[C@]12C (stereo partly drawn) [Compound 2] | 17 to 30 | –
2 | C[C@H](CC[C@@H](O[C@@H]1O[C@H](CO[C@H]2O[C@H](CO)[C@@H](O)[C@H](O)[C@H]2O)[C@@H](O)[C@H](O)[C@H]1O[C@@H]1O[C@H](CO)[C@@H](O)[C@H](O)[C@H]1O)C(C)(C)O)C1CC[C@@]2(C)C3CC=C4C(CC[C@H](O[C@@H]5O[C@H](CO)[C@@H](O)[C@H](O)[C@H]5O)C4(C)C)[C@]3(C)[C@H](O)C[C@]12C (stereo partly drawn) [Compound 3] | – | < 17
3 | C[C@H](CC[C@@H](O[C@@H]1O[C@H](CO[C@H]2O[C@H](CO)[C@@H](O)[C@H](O)[C@H]2O)[C@@H](O)[C@H](O)[C@H]1O[C@@H]1O[C@H](CO)[C@@H](O)[C@H](O)[C@H]1O)C(C)(C)O)C1CC[C@@]2(C)C3CC=C4C(CC[C@H](O[C@@H]5O[C@H](CO[C@H]6O[C@H](CO)[C@@H](O)[C@H](O)[C@H]6O)[C@@H](O)[C@H](O)[C@H]5O)C4(C)C)[C@]3(C)[C@H](O)C[C@]12C (stereo partly drawn) [Compound 4] | – | < 17
4 | C[C@H](CC[C@@H](O[C@@H]1O[C@H](CO[C@H]2O[C@H](CO)[C@@H](O)[C@H](O)[C@H]2O)[C@@H](O)[C@H](O)[C@H]1O[C@@H]1O[C@H](CO)[C@@H](O)[C@H](O)[C@H]1O)C(C)(C)O)C1CC[C@@]2(C)C3CC=C4C(CC[C@H](O[C@@H]5O[C@H](CO)[C@@H](O[C@H]6O[C@H](CO)[C@@H](O)[C@H](O)[C@H]6O)[C@H](O)[C@H]5O)C4(C)C)[C@]3(C)[C@H](O)C[C@]12C (stereo partly drawn) [Compound 5] | 17 to 30 | –
5 | C[C@H](CC[C@@H](O[C@@H]1O[C@H](CO)[C@@H](O)[C@H](O)[C@H]1O[C@@H]1O[C@H](CO)[C@@H](O[C@H]2O[C@H](CO)[C@@H](O)[C@H](O)[C@H]2O)[C@H](O)[C@H]1O)C(C)(C)O)C1CC[C@@]2(C)C3CC=C4C(CC[C@H](O[C@@H]5O[C@H](CO)[C@@H](O)[C@H](O)[C@H]5O)C4(C)C)[C@]3(C)[C@H](O)C[C@]12C (stereo partly drawn) [Compound 9] | 17 to 30 | –
6 | C[C@H](CC[C@@H](O[C@@H]1O[C@H](CO[C@H]2O[C@H](CO)[C@@H](O)[C@H](O)[C@H]2O)[C@@H](O)[C@H](O)[C@H]1O[C@@H]1O[C@H](CO)[C@@H](O)[C@H](O)[C@H]1O)C(C)(C)O)C1CC[C@@]2(C)C3CC=C4C(CC[C@H](O[C@@H]5O[C@H](CO)[C@@H](O)[C@H](O)[C@H]5O)C4(C)C)[C@]3(C)C(=O)C[C@]12C (stereo partly drawn) [Compound 11] | > 30 | –
7 | CC(CCC(OC1OC(COC2OC(CO)C(O)C(O)C2O)C(O)C(O)C1OC1OC(CO)C(O)C(O)C1O)C(C)(C)O)C1CCC2(C)C3CC=C4C(CCC(OC5OC(COC6OC(CO)C(O)C(O)C6O)C(O)C(O)C5O)C4(C)C)C3(C)C(O)CC12C (stereo not drawn) [Compound 12] | – | 17 to 30
8 | C[C@H](CC[C@@H](O[C@@H]1O[C@H](CO)[C@@H](O)[C@H](O)[C@H]1O[C@@H]1O[C@H](CO)[C@@H](O[C@@H]2O[C@H](CO)[C@@H](O)[C@H](O)[C@H]2O)[C@H](O)[C@H]1O)C(C)(C)O)C1CC[C@@]2(C)C3CC=C4C(CC[C@H](O[C@@H]5O[C@H](CO)[C@@H](O)[C@H](O)[C@H]5O)C4(C)C)[C@]3(C)[C@H](O)C[C@]12C (stereo partly drawn) [Compound 13] | 17 to 30 | –
9 | C[C@H](CC[C@@H](O[C@@H]1O[C@H](CO[C@H]2O[C@H](CO)[C@@H](O)[C@H](O)[C@H]2O)[C@@H](O)[C@H](O)[C@H]1O[C@@H]1O[C@H](CO)[C@@H](O[C@H]2O[C@H](CO)[C@@H](O)[C@H](O)[C@H]2O)[C@H](O)[C@H]1O)C(C)(C)O)C1CC[C@@]2(C)C3CC=C4C(CC[C@H](O)C4(C)C)[C@]3(C)[C@H](O)C[C@]12C (stereo partly drawn) [Compound 16] | 17 to 30 | –
10 | C[C@H](CC[C@@H](O[C@@H]1O[C@H](CO[C@H]2O[C@H](CO)[C@@H](O)[C@H](O)[C@H]2O)[C@@H](O)[C@H](O)[C@H]1O[C@@H]1O[C@H](CO)[C@@H](O)[C@H](O)[C@H]1O)C(C)(C)O)C1CC[C@@]2(C)C3CC=C4C(CC[C@H](O[C@@H]5O[C@H](CO[C@@H]6O[C@H](CO)[C@@H](O)[C@H](O)[C@H]6O)[C@@H](O)[C@H](O)[C@H]5O)C4(C)C)[C@]3(C)[C@H](O)C[C@]12C (stereo partly drawn) [Compound 23] | – | < 17
11 | C[C@H](CC[C@@H](O[C@@H]1O[C@H](CO[C@@H]2O[C@H](CO)[C@@H](O)[C@H](O)[C@H]2O)[C@@H](O[C@@H]2O[C@H](CO)[C@@H](O)[C@H](O)[C@H]2O)[C@H](O)[C@H]1O)C(C)(C)O)C1CC[C@@]2(C)C3CC=C4C(CC[C@H](O[C@@H]5C[C@H](COC6O[C@H](CO)[C@@H](O)[C@H](O)[C@H]6O)[C@@H](O)[C@H](O)[C@H]5O)C4(C)C)[C@]3(C)C(=O)C[C@]12C (stereo partly drawn) [Compound 29] | > 30 | –
12 | C[C@H](CC[C@@H](O[C@@H]1O[C@H](CO[C@@H]2O[C@H](CO[C@@H]3O[C@H](CO)[C@@H](O)[C@H](O)[C@H]3O)[C@@H](O)[C@H](O)[C@H]2O)[C@@H](O)[C@H](O)[C@H]1O[C@@H]1O[C@H](CO)[C@@H](O)[C@H](O)[C@H]1O)C(C)(C)O)C1CC[C@@]2(C)C3CC=C4C(CC[C@H](O[C@@H]5O[C@H](COC6O[C@H](CO)[C@@H](O)[C@H](O)[C@H]6O)[C@@H](O)[C@H](O)[C@H]5O)C4(C)C)[C@]3(C)[C@H](O)C[C@]12C (stereo partly drawn) [Compound 30] | > 30 | –
13 | C[C@H](CC[C@@H](O[C@@H]1O[C@H](CO[C@@H]2O[C@H](CO)[C@@H](O)[C@H](O)[C@H]2O)[C@@H](O)[C@H](O)[C@H]1O[C@@H]1O[C@H](CO)[C@@H](O)[C@H](O)[C@H]1O)C(C)(C)O)C1CC[C@@]2(C)C3CC=C4C(CC[C@H](O[C@@H]5O[C@H](CO[C@@H]6O[C@H](CO)[C@@H](O)[C@H](O)[C@H]6O)[C@@H](O)[C@H](O)[C@H]5O)C4(C)C)[C@]3(C)C=C[C@]12C (stereo partly drawn) [Compound 31] | > 30 | –
14 | C[C@H](CC[C@@H](O[C@@H]1O[C@H](CO)[C@@H](O)[C@H](O)[C@H]1O[C@@H]1O[C@H](CO)[C@@H](O)[C@H](O)[C@H]1O)C(C)(C)O)C1CC[C@@]2(C)C3CC=C4C(CC[C@H](O[C@@H]5O[C@H](CO[C@@H]6O[C@H](CO)[C@@H](O)[C@H](O)[C@H]6O)[C@@H](O)[C@H](O)[C@H]5O[C@H]5O[C@@H](CO)[C@H](O)[C@@H](O)[C@@H]5O)C4(C)C)[C@]3(C)[C@H](O)C[C@]12C (stereo partly drawn) [Compound 32] | > 30 | –
15 | C[C@H](CC[C@@H](O[C@@H]1O[C@H](CO)[C@@H](O)[C@H](O)[C@H]1O[C@@H]1O[C@H](CO)[C@@H](O)[C@H](O)[C@H]1O)C(C)(C)O)C1CC[C@@]2(C)C3CC=C4C(CC[C@H](O[C@@H]5O[C@H](CO[C@H]6O[C@H](COC7O[C@H](CO)[C@@H](O)[C@H](O)[C@H]7O)[C@@H](O)[C@H](O)[C@H]6O)[C@@H](O)[C@H](O)[C@H]5O)C4(C)C)[C@]3(C)[C@H](O)C[C@]12C (stereo partly drawn) [Compound 33] | > 30 | –
